Data on 36 compounds can be found in patent publication US20230322747A1, “OXADIAZOLE HDAC6 INHIBITORS AND USES THEREOF” (Eikonizo Therapeutics, Inc., priority 2022, published 2023).

For one assay, the target named is Human HDAC6 (Homo sapiens (Human), UniProt Q9UBN7). In words: HDAC6 enzymatic activity assay (Caliper endpoint or fluorogenic format). It counts as biochemical. The settings on record: for IC50: in vitro enzymatic; for Selectivity (6 v 8) (fold): ratio of HDAC8 IC50/HDAC6 IC50.
The next assay addresses Human HDAC8 (Homo sapiens (Human), UniProt Q9BY41). In words: Caliper endpoint assay for HDAC8 enzymatic activity. Format: biochemical. The settings on record: in vitro enzymatic.

Bounds are passed on as bounds.

Chain of Human HDAC8 (Q9BY41 whole entry): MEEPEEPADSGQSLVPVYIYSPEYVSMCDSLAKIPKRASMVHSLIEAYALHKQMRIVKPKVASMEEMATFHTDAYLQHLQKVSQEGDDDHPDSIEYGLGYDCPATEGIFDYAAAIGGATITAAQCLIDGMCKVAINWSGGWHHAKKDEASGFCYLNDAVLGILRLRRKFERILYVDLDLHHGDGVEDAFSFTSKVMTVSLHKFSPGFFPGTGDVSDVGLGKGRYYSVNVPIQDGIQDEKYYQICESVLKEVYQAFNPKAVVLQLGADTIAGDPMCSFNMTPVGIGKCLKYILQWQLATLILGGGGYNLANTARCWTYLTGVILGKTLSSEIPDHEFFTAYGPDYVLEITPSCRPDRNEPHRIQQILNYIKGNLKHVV
Chain of Human HDAC6 (Q9UBN7 whole entry): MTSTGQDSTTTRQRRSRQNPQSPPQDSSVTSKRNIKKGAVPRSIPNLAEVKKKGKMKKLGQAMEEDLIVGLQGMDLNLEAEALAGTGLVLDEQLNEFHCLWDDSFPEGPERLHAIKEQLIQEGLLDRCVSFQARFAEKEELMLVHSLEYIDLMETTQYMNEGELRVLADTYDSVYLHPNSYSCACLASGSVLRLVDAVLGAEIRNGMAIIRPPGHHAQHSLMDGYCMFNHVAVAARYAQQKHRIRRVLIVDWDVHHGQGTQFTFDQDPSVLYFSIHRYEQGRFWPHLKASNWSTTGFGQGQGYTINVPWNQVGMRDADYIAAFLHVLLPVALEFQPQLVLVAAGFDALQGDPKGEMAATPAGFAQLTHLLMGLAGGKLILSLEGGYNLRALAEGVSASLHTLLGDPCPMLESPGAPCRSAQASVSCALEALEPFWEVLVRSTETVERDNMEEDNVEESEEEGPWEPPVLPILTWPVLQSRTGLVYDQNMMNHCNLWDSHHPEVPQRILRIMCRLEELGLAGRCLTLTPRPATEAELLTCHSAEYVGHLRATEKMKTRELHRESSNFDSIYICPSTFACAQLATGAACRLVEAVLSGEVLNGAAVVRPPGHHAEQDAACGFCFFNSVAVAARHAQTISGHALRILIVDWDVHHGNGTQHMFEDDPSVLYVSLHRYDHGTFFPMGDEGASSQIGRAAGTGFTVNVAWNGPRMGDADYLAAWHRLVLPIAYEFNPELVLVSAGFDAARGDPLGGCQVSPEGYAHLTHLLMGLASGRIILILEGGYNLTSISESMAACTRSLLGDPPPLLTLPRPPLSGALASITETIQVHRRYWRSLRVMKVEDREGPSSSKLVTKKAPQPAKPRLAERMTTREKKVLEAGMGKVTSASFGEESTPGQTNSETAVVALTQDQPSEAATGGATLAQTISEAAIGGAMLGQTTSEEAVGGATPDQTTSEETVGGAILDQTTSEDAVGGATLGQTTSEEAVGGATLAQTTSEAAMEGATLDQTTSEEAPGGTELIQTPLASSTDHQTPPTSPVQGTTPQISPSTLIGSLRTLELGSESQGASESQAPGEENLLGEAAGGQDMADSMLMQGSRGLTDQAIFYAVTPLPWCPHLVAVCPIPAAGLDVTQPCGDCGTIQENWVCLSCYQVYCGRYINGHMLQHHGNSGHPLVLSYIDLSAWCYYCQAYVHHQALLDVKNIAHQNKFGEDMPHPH

Take `Fc1ccc(OCc2ncc(-c3nnc(C(F)F)o3)cn2)cc1` [Compound 1, 2-(difluoromethyl)-5-(2-((4-fluorophenoxy)methyl)pyrimidin-5-yl)-1,3,4-oxadiazole]: on Human HDAC6, the IC50 is 1 to 100 nM and the “Selectivity (6 v 8) (fold)” value was “V (V: >1000)”. The compound also displayed an IC50 on Human HDAC8 of over 100000 nM.
Consider `Fc1ccc(Cl)cc1OCc1ccc(-c2nnc(C(F)F)o2)cn1` [Compound 2, 2-(6-((5-chloro-2-fluorophenoxy)methyl)pyridin-3-yl)-5-(difluoromethyl)-1,3,4-oxadiazole], for which, on Human HDAC6, the IC50 lay within 1 to 100 nM and the “Selectivity (6 v 8) (fold)” value was “V (V: >1000)”. For the same compound, the IC50 against Human HDAC8 is over 100000 nM.
Take `Fc1cc(Cl)ccc1OCc1ccc(-c2nnc(C(F)F)o2)cn1` [Compound 3, 2-(6-((4-chloro-2-fluorophenoxy)methyl)pyridin-3-yl)-5-(difluoromethyl)-1,3,4-oxadiazole]: at Human HDAC6, the IC50 fell in the range of 1 to 100 nM and the “Selectivity (6 v 8) (fold)” value was “V (V: >1000)”. The compound further showed an IC50 at Human HDAC8 of over 100000 nM.
As to `Fc1ccc(OCc2ccc(-c3nnc(C(F)F)o3)cn2)c(Cl)c1` [Compound 4, 2-(6-((2-chloro-4-fluorophenoxy)methyl)pyridin-3-yl)-5-(difluoromethyl)-1,3,4-oxadiazole], at Human HDAC6, the IC50 lay within 1 to 100 nM and the “Selectivity (6 v 8) (fold)” value is given as “V (V: >1000)”. Also, the IC50 against Human HDAC8 was over 100000 nM.
Taken in the same sequence, the figures for `Fc1ccc(OCc2ccc(-c3nnc(C(F)F)o3)cn2)c(F)c1` [Compound 5, 2-(difluoromethyl)-5-(6-((2,4-difluorophenoxy)methyl)pyridin-3-yl)-1,3,4-oxadiazole] were 1 to 100 nM, “V (V: >1000)” and over 100000 nM.
Taken in the same sequence, the figures for `Fc1ccc(OCc2ncc(-c3nnc(C(F)F)o3)cc2F)cc1` [Compound 6, 2-(difluoromethyl)-5-(5-fluoro-6-((4-fluorophenoxy)methyl)pyridin-3-yl)-1,3,4-oxadiazole] were 1 to 100 nM, “V (V: >1000)” and over 100000 nM.
With `Fc1ccc(Cl)c(OCc2ccc(-c3nnc(C(F)F)o3)cn2)c1` [Compound 7, 2-(6-((2-chloro-5-fluorophenoxy)methyl)pyridin-3-yl)-5-(difluoromethyl)-1,3,4-oxadiazole], the results for the IC50 at Human HDAC6 and at Human HDAC8 were 1 to 100 nM and over 100000 nM, respectively. For the same compound, on Human HDAC6, the “Selectivity (6 v 8) (fold)” value is listed as “V (V: >1000)”.
Taken in the same sequence, the figures for `FC(F)c1nnc(-c2ccc(COc3ccc(Cl)cc3)nc2)o1` [Compound 8, 2-(6-((4-chlorophenoxy)methyl)pyridin-3-yl)-5-(difluoromethyl)-1,3,4-oxadiazole] were 1 to 100 nM, over 100000 nM and “V (V: >1000)”.
Turning to `Fc1ccc(OCc2ccc(-c3nnc(C(F)F)o3)cn2)cc1F` [Compound 9, 2-(difluoromethyl)-5-(6-((3,4-difluorophenoxy)methyl)pyridin-3-yl)-1,3,4-oxadiazole], at Human HDAC6, the IC50 lay in the range of 1 to 100 nM and the “Selectivity (6 v 8) (fold)” value is recorded as “V (V: >1000)”. Also, the IC50 on Human HDAC8 is over 100000 nM.
For the compound `FC(F)c1nnc(-c2ccc(COc3cccc4cccnc34)nc2)o1` [Compound 10, 2-(difluoromethyl)-5-(6-((quinolin-8-yloxy)methyl)pyridin-3-yl)-1,3,4-oxadiazole], on Human HDAC6, the IC50 was in the range of 1 to 100 nM and the “Selectivity (6 v 8) (fold)” value is “V (V: >1000)”. Further, the IC50 at Human HDAC8 was over 100000 nM.
Turning to `FC(F)c1nnc(-c2ccc(COc3cccc4ccccc34)nc2)o1` [Compound 11, 2-(difluoromethyl)-5-(6-((naphthalen-1-yloxy)methyl)pyridin-3-yl)-1,3,4-oxadiazole], the results for the IC50 at Human HDAC6 and against Human HDAC8 were 1 to 100 nM and over 100000 nM, respectively. The “Selectivity (6 v 8) (fold)” value at Human HDAC6 is given as “V (V: >1000)”.
Consider `Fc1ccc(OCc2ccc(-c3nnc(C(F)F)o3)cn2)cc1` [Compound 12, 2-(difluoromethyl)-5-(6-((4-fluorophenoxy)methyl)pyridin-3-yl)-1,3,4-oxadiazole], for which the IC50 on Human HDAC6 is 1 to 100 nM; at Human HDAC8, over 100000 nM. Besides, the “Selectivity (6 v 8) (fold)” value on Human HDAC6 was “V (V: >1000)”.
`FC(F)c1nnc(-c2ccc(C(F)(F)Oc3cccc4cccnc34)nc2)o1` [Compound 13, 2-(6-(difluoro(quinolin-8-yloxy)methyl)pyridin-3-yl)-5-(difluoromethyl)-1,3,4-oxadiazole]: the IC50 was 1 to 100 nM at Human HDAC6 and over 100000 nM against Human HDAC8. Moreover, the “Selectivity (6 v 8) (fold)” value at Human HDAC6 was “V (V: >1000)”.
Take `Fc1ccc(OC(F)(F)c2ccc(-c3nnc(C(F)F)o3)cn2)cc1` [Compound 15, 2-(6-(difluoro(4-fluorophenoxy)methyl)pyridin-3-yl)-5-(difluoromethyl)-1,3,4-oxadiazole]: at Human HDAC6, the IC50 was 100 to 1000 nM and the “Selectivity (6 v 8) (fold)” value is “V (V: >1000)”. The compound also registered an IC50 at Human HDAC8 of over 100000 nM.
Consider `FC(F)c1nnc(-c2ccc(COc3ccccn3)nc2)o1` [Compound 16, 2-(difluoromethyl)-5-(6-((pyridin-2-yloxy)methyl)pyridin-3-yl)-1,3,4-oxadiazole], for which, on Human HDAC6, the IC50 is 1 to 100 nM and the “Selectivity (6 v 8) (fold)” value is given as “V (V: >1000)”. Moreover, the IC50 at Human HDAC8 is over 100000 nM.
On to `FC(F)c1nnc(-c2ccc(COc3cccnc3)nc2)o1` [Compound 17, 2-(difluoromethyl)-5-(6-((pyridin-3-yloxy)methyl)pyridin-3-yl)-1,3,4-oxadiazole], for which, on Human HDAC6, the IC50 lay within 1 to 100 nM and the “Selectivity (6 v 8) (fold)” value is reported as “V (V: >1000)”. At Human HDAC8, this compound came in with an IC50 of 10000 to 100000 nM.
With `FC(F)c1nnc(-c2ccc(COc3ccncc3)nc2)o1` [Compound 18, 2-(difluoromethyl)-5-(6-((pyridin-4-yloxy)methyl)pyridin-3-yl)-1,3,4-oxadiazole], the figures for the IC50 against Human HDAC6 and at Human HDAC8 were 1 to 100 nM and over 100000 nM, respectively. Also, on Human HDAC6, the “Selectivity (6 v 8) (fold)” value is recorded as “V (V: >1000)”.
On to `Fc1cncc(OCc2ccc(-c3nnc(C(F)F)o3)cn2)c1` [Compound 19, 2-(Difluoromethyl)-5-(6-(((5-fluoropyridin-3-yl)oxy)methyl)pyridin-3-yl)-1,3,4-oxadiazole], for which the values for the IC50 on Human HDAC6 and against Human HDAC8 were 1 to 100 nM and over 100000 nM, respectively. The “Selectivity (6 v 8) (fold)” value at Human HDAC6 was “V (V: >1000)”.
As to `FC(F)c1nnc(-c2ccc(COCC34CC5CC(CC(C5)O3)C4)nc2)o1` [Compound 20, 2-(6-(((2-oxaadamantan-1-yl)methoxy)methyl)pyridin-3-yl)-5-(difluoromethyl)-1,3,4-oxadiazole], at Human HDAC6, the IC50 lay within 1 to 100 nM and the “Selectivity (6 v 8) (fold)” value was “V (V: >1000)”. The IC50 at Human HDAC8 is over 100000 nM.
As to `Fc1cc(-c2nnc(C(F)F)o2)cnc1COc1ccc2ccccc2c1` [Compound 182, 2-(Difluoromethyl)-5-(5-fluoro-6-((naphthalen-2-yloxy)methyl)pyridin-3-yl)-1,3,4-oxadiazole], the IC50 against Human HDAC6 lay in the range of 1 to 100 nM.
`FC(F)c1nnc(-c2ccc(COc3cnc4ccnn4c3)nc2)o1` [Compound 183, 2-(Difluoromethyl)-5-(6-((pyrazolo[1,5-a]pyrimidin-6-yloxy)methyl)pyridin-3-yl)-1,3,4-oxadiazole] showed an IC50 at Human HDAC6 of 1 to 100 nM.
At Human HDAC6, `FC(F)c1nnc(-c2ccc(COc3ccc(-c4ccccc4)cc3)nc2)o1` [Compound 185, 2-(6-(([1,1′-Biphenyl]-4-yloxy)methyl)pyridin-3-yl)-5-(difluoromethyl)-1,3,4-oxadiazole] displayed an IC50 of 1 to 100 nM.
`FC(F)c1nnc(-c2ccc(COc3ccnc(-c4ccccc4)c3)nc2)o1` [Compound 186, 2-(Difluoromethyl)-5-(6-(((2-phenylpyridin-4-yl)oxy)methyl)pyridin-3-yl)-1,3,4-oxadiazole] gave a half-maximal inhibitory concentration (IC50) at Human HDAC6 of 1 to 100 nM.
On the same count and under the same terms, the value for `FC(F)c1nnc(-c2ccc(COc3ccccc3-c3ccccc3)nc2)o1` [Compound 187, 2-(6-(([1,1′-biphenyl]-2-yloxy)methyl)pyridin-3-yl)-5-(difluoromethyl)-1,3,4-oxadiazole] was 1000 to 10000 nM; that for `FC(F)c1nnc(-c2ccc(COc3cccc(-c4ccccc4)c3)nc2)o1` [Compound 188, 2-(6-(([1,1′-Biphenyl]-3-yloxy)methyl)pyridin-3-yl)-5-(difluoromethyl)-1,3,4-oxadiazole] was 100 to 1000 nM.
The same measure, in the same setting: the value for `FC(F)c1nnc(-c2ccc(COc3ccnc(Cl)c3)nc2)o1` [Compound 189, 2-(6-(((2-Chloropyridin-4-yl)oxy)methyl)pyridin-3-yl)-5-(difluoromethyl)-1,3,4-oxadiazole] was 1 to 100 nM; that for `O=C(Nc1ccccc1)c1cccc(OCc2ccc(-c3nnco3)cn2)c1` [Compound 196, 3-((5-(1,3,4-oxadiazol-2-yl)pyridin-2-yl)methoxy)-N-phenylbenzamide] was 1 to 100 nM; that for `CNC(=O)c1cccc(OCc2ccc(-c3nnc(C(F)F)o3)cn2)c1` [Compound 197, 3-((5-(5-(difluoromethyl)-1,3,4-oxadiazol-2-yl)pyridin-2-yl)methoxy)-N-methylbenzamide] was 1 to 100 nM.
Regarding `Cn1nccc1-c1ccc(OCc2ccc(-c3nnc(C(F)F)o3)cn2)cc1` [Compound 199, 2-(Difluoromethyl)-5-(6-((4-(1-methyl-1H-pyrazol-5-yl)phenoxy)methyl)pyridin-3-yl)-1,3,4-oxadiazole], the IC50 against Human HDAC6 fell in the range of 1 to 100 nM.
Take `Cn1c(-c2ccc(OCc3ccc(-c4nnc(C(F)F)o4)cn3)cc2)nc2ccccc21` [Compound 200]: the IC50 against Human HDAC6 was 1 to 100 nM.
`Cn1c(-c2cccc(OCc3ccc(-c4nnc(C(F)F)o4)cn3)c2)nc2ccccc21` [Compound 201]: the IC50 on Human HDAC6 was 1 to 100 nM.
As to `FC(F)c1nnc(-c2ccc(COc3cnc(C(F)(F)F)nc3)nc2)o1` [Compound 205], the IC50 against Human HDAC6 was in the range of 1 to 100 nM.
The same measure, in the same setting: the value for `FC(F)c1nnc(-c2ccc(COc3cccc(-c4nc5ccccc5[nH]4)c3)nc2)o1` [Compound 206] was 1 to 100 nM.
The same measure, in the same setting: the value for `FC(F)c1nnc(-c2ccc(COc3ccc(-c4nc5ccccc5[nH]4)cc3)nc2)o1` [Compound 207] was 1 to 100 nM; that for `Cn1cnc2c(OCc3ccc(-c4nnc(C(F)F)o4)cn3)cccc21` [Compound 208] was 1 to 100 nM; that for `Cn1cnc2ccc(OCc3ccc(-c4nnc(C(F)F)o4)cn3)cc21` [Compound 213] was 1 to 100 nM.

As a reminder, the IC50 is the midpoint of a concentration-inhibition curve.
